# Measured values as given in patent US20260182582A1, “METHODS AND COMPOSITIONS FOR BIOPROTECTION OF TOMATOES FROM CLAVIBACTER MICHIGANENSIS SUBSP. MICHIGANENSIS” (The Royal Institution for the Advancement of …, priority 2018, published 2026).
# “And” between values parts separate entries of the source, which are not always exact repeats. Equal values may be shown once.
# Test system: Cmm
# Test: Agar well diffusion assay against Cmm
# Type: cell-based, Clavibacter michiganensis subsp. michiganensis
# Method: In addition, the antibacterial activity of various fractions and the purified antibiotic produced by B. pumilus was assessed via agar well diffusion assay. Cmm was grown as described above and a suspension of 100 μL was evenly spread over fresh NBYA plates using sterile spreader. Wells of 6 mm diameter were carefully made in the agar and 50 μL of the test fraction or antibiotic test sample extracted from B. pumilus was poured into the agar well. Sterilized distilled water served as a control treatment.
# The antimicrobial activities of Micrococcin P1 at various concentrations were assessed via agar well diffusion assay. A cell suspension of Cmm was overlaid on NBYA and the plates were allowed to air dry. A 50 μL drop of Micrococcin P1 diluted in various concentrations were applied into agar well.
substance,measurement,setting,value
Micrococcin P1,"antibacterial activity against Cmm, zone of inhibition around the well","50 μL in 6 mm agar well, NBYA, 28° C., 3 days",antimicrobial activity against Cmm
same,concentration having the most significant effects,highest concentration tested,5 mg/L and 4.37 μM
same,amount per well needed for growth inhibition zones,"per well in 50 μL, NBYA, 3 days 28° C.",≥ 7.8125 ng
same,dose dependence of antibacterial activities,"various concentrations, FIG. 7",increased proportional to the Micrococcin P1 concentrations
